From patent US20060165642A1, “Hair treatment compositions” (priority 2002, published 2006) come the findings set out here.

The nature of this test: cuticle abrasion test. The note with it: for % recovery: freeze-dried cuticle abraded from 4 g hair washed twice with base shampoo containing 0.03M of the compound, lower is better; for performance in cuticle abrasion test versus comparative Examples: base shampoo containing 0.03M of the compound. The method, then:
The compositions were tested in a cuticle abrasion test. Root end hair (as received from the supplier) was pre-cleaned by washing for 1 minute in Composition I followed by copious rinsing in double deionised water. The hair was left to dry naturally over 24 hrs.
For each test, 4 g of hair was washed in 0.4 g of the test composition for 30 seconds, rinsed for 30 seconds, and the washing/rinsing cycle repeated. The hair was left to dry naturally overnight.
The hair was cut into 1 cm lengths, placed in a blender bucket and 200 ml of double de-ionised water was added. The blender was placed on full power for 1 minute. The liquor was decanted off and transferred to a 50 ml centrifuge tube and centrifuged for 10 minutes at 4,300 RPM. The resulting clear liquor was decanted off leaving the cuticle sediment at the bottom of the tube.
The cuticle was transferred from the tube into a beaker with 3×5 ml washes and passed through a series of sieves (425 and 53 microns). The sieves were washed with a further 2×10 ml of water to ensure complete recovery of the cuticle. The sample was made up to 50 ml in a centrifuge tube, centrifuged for 15 minutes and the liquor decanted off. The cuticle was transferred with double deionised water (2×10 ml washes) to a beaker and freeze-dried.
The freeze-dried cuticle was weighed back to determine percentage recovery.

For `CC(O)CC(C)(C)O` (centres unmarked) [Compound B, 2-methyl-2,4 pentanediol, reference compound], the “% recovery” value is on record as 0.50%.

Consider `CC(C)(C)C(O)CO` (centres unmarked) [Compound 2, 3,3-dimethyl-1,2-butanediol], for which the “performance in cuticle abrasion test versus comparative Examples” value was “perform better than comparative Examples A and B”; the “% recovery” value is recorded as 0.27%. With `CC(C)(C)CCO` [Compound 1, 3,3-dimethylbutan-1-ol], the “performance in cuticle abrasion test versus comparative Examples” value was “perform better than comparative Examples A and B”; the “% recovery” value was found to be 0.31%.
